The test system of experiment [1] is U937 cells. The experiment is described as follows: Inhibition of TNF-α-induced programmed necrosis of U937 cells (CellTiter-Glo). It is filed as cell-based. The conditions noted are these: U-937, human TNF-α + Q-VD-Oph, 48 hours. As to the method: The U937 cell line used in the following test examples was from ATCC, number: CRL-1593.2, batch number: 63479999, culture medium: RPMI-1640+10% FBS.
(§1) The reagents used, suppliers and product numbers of the reagents were as follows: RPMI-1640, Gibco, 11875-093; FBS, Gibco, 10099-141; Trypsin-EDTA, Gibco, 25200-072; PS, Gibco, 15140-122; CellTiter Glo , Progema, G7573; DMSO, VWR AMRESCO, 0231-500ML; TNF-α protein (human, recombinant), Peprotech, 300-01A; Q-VD-Oph, MCE, HY-12305; V-shaped bottom plate, Corning, 3894; 384-well low-flange white flat-bottom microplate, Corning, 3570; RIPK1, Eurofins, 16-022; MOPS, BDH, 441644J; EDTA, Sigma, E5134; Myelin basic protein, Sigma, M1891-25.00 MG; Magnesium acetate, Merck, DU008026; ATP (non-radioactive label), Sigma, A-7699; ATP (radioactive label), Hartmann Analytic, DU008054; Phosphoric acid, Metlab, DU003000; Z-VAD: Shanghai Yuang Chemical Industry, YA02401.
The compounds to be tested were dissolved in DMSO and diluted with DMSO into a series of concentration gradients. 5000 U937 cells/well were seeded in a 384-well white plate. Compounds of corresponding concentrations were added to each well and mixed evenly with the cells. At the same time, human TNF-a and Q-VD-Oph were added to induce programmed necrosis of the cells. The cells were placed at 37° C., 5% CO2 incubator for 48 hours. CellTiter-Glo reagent was used for detection, and the chemiluminescence reading was detected using a microplate reader after sufficient lysis reaction. The test results were calculated using the formula SR (%)=(RLU compound−RLU blank)/(RLU high control−RLU blank)×100%. The survival rate and the final concentration of the corresponding compound were drawn into a curve and fitted using four parameters. Inhibitory IC50 on TNF-α-induced cell necrosis of the compounds were calculated.

Experiment [2] deals with L929 cells. The experiment is described as follows: Inhibition of TNF-α-induced programmed necrosis of L929 cells (CellTiter-Glo). Type of experiment: cell-based. The conditions noted are these: 30 ng/ml mouse TNF-α + 15 μM Z-VAD, 6 hours. Here is the method: The L929 cell line used in the following test examples was from ATCC, number: CCL-1, batch number: 70001022, culture medium: MEM+10% FBS+1% PS.
as §1
The compounds to be tested were dissolved in DMSO to prepare a 10 mM stock solution, and diluted 3.16 times with DMSO into a series of concentration gradients, and then dilute 100 times to prepare a working solution. 10000 L929 cells/well were seeded in a 384-well white plate. Compounds of corresponding concentrations were added to each well and mixed evenly with the cells. At the same time, 30 ng/ml mouse TNF-α and 15 μM Z-VAD were added to induce programmed necrosis of the cells, the final concentration of DMSO was 0.2%. The cells were placed at 37° C., 5% CO2 incubator for 6 hours. CellTiter-Glo reagent was used for detection, and the chemiluminescence reading was detected using a microplate reader after sufficient lysis reaction. The test results were calculated using the formula SR (%)=(RLU compound−RLU blank)/(RLU high control−RLU blank)×100%. The survival rate and the final concentration of the corresponding compound were drawn into a curve and fitted using four parameters. Inhibitory IC50 on TNF-α-induced cell necrosis of the compounds were calculated.
Background: ATP-based viability assays read luminescence as a measure of living cells.

In experiment [3] the target is RIPK1 (Homo sapiens (Human), UniProt Q13546). The experiment is described as follows: Inhibitory activity against RIPK1 enzyme (33P-ATP, MBP substrate). It is filed as biochemical. The conditions noted are these: 36 nM RIPK1, 0.33 mg/ml MBP, 155 μM ATP, 2 hours, room temperature. As to the method: as §1
The compound to be tested was dissolved in DMSO to prepare a 10 mM stock solution, diluted 3.16 times with DMSO into a series of concentration gradients, and then MOPS pH 7.0 buffer solution was used to dilute 50 times to prepare a working solution, and mixed well with 36 nM RIPK1 (final concentration), 0.33 mg/ml substrate MBP. Afterwards, 10 mM magnesium ions and 155 μM phosphorus 33 isotope-labeled ATP were added to react, The final concentration of DMSO was 2%. After the reaction was proceeded at room temperature for 2 hours, phosphoric acid was added to terminate. The final reaction system was processed and detected using a liquid scintillation counter. After the test results are subtracted from the blank control and compared with the reading value of the control group to convert to the activity percentage, which was plotted as a curve with the final concentration of the corresponding compound, and four-parameter fitting was used to obtain the IC50 of the compound that inhibits RIPK1 enzyme activity.

Sequence of RIPK1 (Q13546 whole entry): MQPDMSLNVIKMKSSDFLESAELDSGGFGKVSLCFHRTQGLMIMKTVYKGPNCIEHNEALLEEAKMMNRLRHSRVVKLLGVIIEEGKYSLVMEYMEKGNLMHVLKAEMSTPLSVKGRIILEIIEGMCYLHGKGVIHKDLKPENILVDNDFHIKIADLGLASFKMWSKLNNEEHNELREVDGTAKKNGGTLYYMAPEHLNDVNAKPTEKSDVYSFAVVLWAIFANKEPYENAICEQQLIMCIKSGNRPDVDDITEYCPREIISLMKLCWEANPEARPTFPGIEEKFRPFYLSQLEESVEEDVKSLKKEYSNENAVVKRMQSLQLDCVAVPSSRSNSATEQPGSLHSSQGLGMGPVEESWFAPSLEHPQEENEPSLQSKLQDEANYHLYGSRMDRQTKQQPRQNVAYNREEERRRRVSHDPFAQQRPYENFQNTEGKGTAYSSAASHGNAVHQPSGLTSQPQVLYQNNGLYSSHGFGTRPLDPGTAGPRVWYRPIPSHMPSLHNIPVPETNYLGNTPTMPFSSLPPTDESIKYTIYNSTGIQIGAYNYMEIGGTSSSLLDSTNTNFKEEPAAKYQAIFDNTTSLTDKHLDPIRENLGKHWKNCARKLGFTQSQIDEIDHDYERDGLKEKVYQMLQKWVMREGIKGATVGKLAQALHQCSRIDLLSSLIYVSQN

In general, IC50 refers to the concentration that gives 50% inhibition. For `CC(C(F)F)N1CCc2c(nn(Cc3c(F)cccc3F)c2Cl)C1=O` (stereo not shown) [Compound Z9, 3-chloro-2-(2,6-difluorobenzyl)-6-(1,1-difluoropropan-2-yl)-2,4,5,6-tetrahydro-7H-pyrazolo[3,4-c]pyridin-7-one], the values for the IC50 in experiment [1] and in experiment [2] were 57.1 nM and 600 nM, respectively.
In the case of `C[C@H](C(F)F)N1CCc2c(nn(Cc3c(F)cccc3F)c2Cl)C1=O` (single isomer, unassigned) [Compound Z9-2], the IC50 in experiment [1] came to 42.8 nM; in experiment [3], 89 nM; in experiment [2], 450 nM.
Turning to `C[C@@H](C(F)F)N1CCc2c(nn(Cc3c(F)cccc3F)c2Br)C1=O` (single isomer, unassigned) [Compound Z24-2], the IC50 in experiment [1] worked out at 29.7 nM; in experiment [2], 348 nM.

The record behind these values is patent publication US20240294523A1, “HETEROCYCLIC LACTAM COMPOUND, AND PREPARATION METHOD THEREFOR AND PHARMACEUTICAL USE THEREOF” (Genfleet Therapeutics (Shanghai) Inc., priority 2021, published 2024).
